53 substances from patent publication US11214803B2, “Modulators of YAP1 expression” (Ionis Pharmaceuticals, Inc., priority 2019, dated 2022) can be followed below.

Strand notation (5' to 3'): a small letter for the sugar, then the base; units joined by * are phosphorothioate-linked, units joined directly phosphodiester-linked; [ ] holds rarer units or linkages, { } end groups; capitals alone tell only the bases. k = constrained ethyl (cEt); [5mC] = 5-methylcytosine; d = 2'-deoxy (DNA); m = 2'-O-methyl

One series deals with Yap1 mRNA. The series can be described thus: Antisense inhibition of human Yap1 in SNU-449 cells by modified oligonucleotides, single dose (Example 5, RTS36584). The format is cell-based. To be noted: Table 50; Yap1 mRNA remaining as percent of untreated control (UT), SNU-449 cells, single dose. In outline: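 Free uptake, 2,000 nM, ~48 h, SNU-449 at 10,000 cells/well. Read-out: qRT-PCR (RTS36584), RIBOGREEN-normalised, expressed as % UTC. Asterisk = oligo hits amplicon region.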
As to “1197280 (kT*kG*kT*d[5mC]*mU*d[5mC]*dA*dT*dG*d[5mC]*d[5mC]*dT*dT*kA*kT*kA; antisense) [Compound 1197280]”, the “YAP1 (% UT)” value stood at 53 % UT. On the same count and under the same terms, the figure for “1197281 (kA*kT*kT*dG*mU*d[5mC]*dT*dC*dA*dT*dG*d[5mC]*d[5mC]*kT*kT*kA; antisense) [Compound 1197281]” is 42 % UT; for “1197282 (kA*kA*kA*dT*mU*dG*dT*d[5mC]*dT*d[5mC]*dA*dT*dG*k[5mC]*k[5mC]*kT) [Compound 1197282]” it is 40 % UT; for “1197283 (kG*kA*kA*dA*mU*dT*dG*dT*d[5mC]*dT*d[5mC]*dA*dT*kG*k[5mC]*k[5mC]; antisense) [Compound 1197283]” it is 29 % UT. Same read-out and setting: the figure for “1197284 (kA*kG*kT*dA*mU*dG*dT*dG*dG*d[5mC]*dA*dA*dT*kA*kA*kT; antisense) [Compound 1197284]” is 35 % UT; for “1197285 (kA*kG*kA*dG*mU*dA*dT*dG*dT*dG*dG*d[5mC]*dA*kA*kT*kA; antisense) [Compound 1197285]” it is 28 % UT.

With “1197286 (kA*kT*kA*dT*mU*dA*dG*dA*dG*dT*dA*dT*dG*kT*kG*kG) [Compound 1197286]”, the “YAP1 (% UT)” value was 43 % UT. Still for that read-out and setting: the same measure for “1197287 (kT*kA*kT*dA*mU*dT*dA*dG*dA*dG*dT*dA*dT*kG*kT*kG) [Compound 1197287]”: 108 % UT; for “1197288 (kT*k[5mC]*kT*dA*mU*dA*dT*dT*dA*dG*dA*dG*dT*kA*kT*kG; antisense) [Compound 1197288]”: 94 % UT; for “1197291 (k[5mC]*kT*kT*dT*mU*dA*d[5mC]*dA*dT*dT*dA*dG*dG*kA*kA*k[5mC]; antisense) [Compound 1197291]”: 83 % UT.

As for “1197292 (kA*k[5mC]*kT*dT*mU*dT*dA*d[5mC]*dA*dT*dT*dA*dG*kG*kA*kA; antisense) [Compound 1197292]”, the “YAP1 (% UT)” value was determined as 84 % UT.

As to “1197293 (k[5mC]*kA*k[5mC]*dT*mU*dT*dT*dA*d[5mC]*dA*dT*dT*dA*kG*kG*kA; antisense) [Compound 1197293]”, the “YAP1 (% UT)” value is reported as 94 % UT. For the substance “1197294 (kG*k[5mC]*kA*d[5mC]*mU*dT*dT*dT*dA*d[5mC]*dA*dT*dT*kA*kG*kG; antisense) [Compound 1197294]”, the “YAP1 (% UT)” value came to 25 % UT.

The series is the same for the next values; noted with them: Table 51; Yap1 mRNA remaining as percent of untreated control (UT), SNU-449 cells, single dose.
On to “1197248 (antisense kT*kT*kA*dA*mG*d[5mC]*dA*d[5mC]*dT*dT*dT*dT*dA*k[5mC]*kA*kT) [Compound 1197248]”, for which the “YAP1 (% UT)” value turned out to be 75 % UT. On the same count and under the same terms, the same measure for “1197250 (antisense kT*kT*kG*dG*mA*dA*dG*dA*dT*d[5mC]*dT*dG*dA*kA*kA*k[5mC]) [Compound 1197250]”: 60 % UT; for “1197251 (antisense kT*kT*kT*dG*mG*dA*dA*dG*dA*dT*d[5mC]*dT*dG*kA*kA*kA) [Compound 1197251]”: 74 % UT. On the same count and under the same terms, the same measure for “1197252 (antisense k[5mC]*kT*kT*dT*mG*dG*dA*dA*dG*dA*dT*d[5mC]*dT*kG*kA*kA) [Compound 1197252]”: 53 % UT; for “1197253 (antisense kA*kG*kT*dG*mC*dT*dT*dT*dG*dG*dA*dA*dG*kA*kT*k[5mC]) [Compound 1197253]”: 58 % UT.

As for “1197254 (antisense kT*kT*kA*dG*mG*dA*dT*dG*d[5mC]*dA*dT*dG*dG*kT*kT*kT) [Compound 1197254]”, the “YAP1 (% UT)” value was determined as 51 % UT. On the same count and under the same terms, the figure for “1197255 (antisense kT*kT*kT*dA*mG*dG*dA*dT*dG*d[5mC]*dA*dT*dG*kG*kT*kT) [Compound 1197255]” is 38 % UT; for “1197256 (antisense kA*kT*kT*dT*mA*dG*dG*dA*dT*dG*d[5mC]*dA*dT*kG*kG*kT) [Compound 1197256]” it is 31 % UT. Consider “1197257 (antisense kT*k[5mC]*kA*dG*mA*dT*dT*dT*dA*dG*dG*dA*dT*kG*k[5mC]*kA) [Compound 1197257]”, for which the “YAP1 (% UT)” value is 20 % UT. “1197258 (antisense kA*kT*kT*d[5mC]*mA*dG*dA*dT*dT*dT*dA*dG*dG*kA*kT*kG) [Compound 1197258]”: the “YAP1 (% UT)” value was determined as 57 % UT.

On to “1197259 (kA*kT*kA*dT*mG*dG*dT*dT*dT*dT*dG*dT*dG*kT*kG*kT) [Compound 1197259]”, for which the “YAP1 (% UT)” value was 59 % UT. On the same count and under the same terms, the figure for “1197260 (kT*kT*kA*dT*mA*dT*dG*dG*dT*dT*dT*dT*dG*kT*kG*kT) [Compound 1197260]” is 65 % UT; for “1197261 (kT*k[5mC]*kT*dT*mA*dT*dA*dT*dG*dG*dT*dT*dT*kT*kG*kT) [Compound 1197261]” it is 91 % UT; for “1197262 (A_{ks}A_{ks}^{m}C_{ks}T_{ds}C_{ys}T_{ds}T_{ds}A_{ds}T_{ds}A_{ds}T_{ds}G_{ds}G_{ds}T_{ks}T_{ks}T_{k}; as printed in the source, key not given here) [Compound 1197262]” it is 89 % UT. On the same count and under the same terms, the figure for “1197263 (kG*kA*k[5mC]*dA*mA*d[5mC]*dT*d[5mC]*dT*dT*dA*dT*dA*kT*kG*kG) [Compound 1197263]” is 91 % UT; for “1197264 (kA*kT*kT*dG*mC*dA*dA*dT*d[5mC]*dT*dG*dT*d[5mC]*kT*kG*kA) [Compound 1197264]” it is 33 % UT; for “1197265 (kT*kA*kA*dT*mA*dT*dT*dG*d[5mC]*dA*dA*dT*d[5mC]*kT*kG*kT) [Compound 1197265]” it is 103 % UT.

In the case of “1197266 (kT*kG*kT*dA*mA*dT*dA*dT*dT*dG*d[5mC]*dA*dA*kT*k[5mC]*kT) [Compound 1197266]”, the “YAP1 (% UT)” value is on record as 31 % UT. On the same count and under the same terms, the figure for “1197267 (kA*kT*kG*dT*mA*dA*dT*dA*dT*dT*dG*d[5mC]*dA*kA*kT*k[5mC]) [Compound 1197267]” is 62 % UT; for “1197268 (kA*kA*kG*dT*mG*dT*dA*dT*dG*dT*d[5mC]*dA*dG*kA*kA*kG) [Compound 1197268]” it is 25 % UT.

As to “1197269 (kT*kA*kA*dA*mG*dT*dG*dT*dA*dT*dG*dT*d[5mC]*kA*kG*kA) [Compound 1197269]”, the “YAP1 (% UT)” value worked out at 3 % UT. For the substance “1197270 (kT*kT*kA*dA*mA*dG*dT*dG*dT*dA*dT*dG*dT*k[5mC]*kA*kG) [Compound 1197270]”, the “YAP1 (% UT)” value is on record as 2 % UT. The same measure, in the same setting: the figure for “1197271 (kT*kT*kT*dA*mA*dA*dG*dT*dG*dT*dA*dT*dG*kT*k[5mC]*kA) [Compound 1197271]” is 12 % UT. The same measure, in the same setting: the figure for “1197272 (^{m}C_{ks}T_{ks}T_{ks}T_{ds}A_{ys}A_{ds}A_{ds}G_{ds}T_{ds}G_{ds}T_{ds}A_{ds}T_{ds}G_{ks}T_{ks}^{m}C_{k}; as printed in the source, key not given here) [Compound 1197272]” is 32 % UT; for “1197273 (kT*kA*kA*dG*mG*dT*dT*dT*d[5mC]*d[5mC]*d[5mC]*dA*dG*kA*kT*kT) [Compound 1197273]” it is 68 % UT; for “1197274 (kA*kG*kT*dA*mA*dG*dG*dT*dT*dT*d[5mC]*d[5mC]*d[5mC]*kA*kG*kA) [Compound 1197274]” it is 31 % UT. Consider “1197275 (kA*kA*kG*dT*mA*dA*dG*dG*dT*dT*dT*d[5mC]*d[5mC]*k[5mC]*kA*kG) [Compound 1197275]”, for which the “YAP1 (% UT)” value was determined as 30 % UT. Turning to “1197276 (k[5mC]*kT*kA*dA*mG*dT*dA*dA*dG*dG*dT*dT*dT*k[5mC]*k[5mC]*k[5mC]; antisense) [Compound 1197276]”, the “YAP1 (% UT)” value was 44 % UT.

For the substance “1197277 (kA*k[5mC]*kT*dA*mA*dG*dT*dA*dA*dG*dG*dT*dT*kT*k[5mC]*k[5mC]) [Compound 1197277]”, the “YAP1 (% UT)” value stood at 23 % UT. Take “1197278 (kG*kA*k[5mC]*dT*mA*dA*dG*dT*dA*dA*dG*dG*dT*kT*kT*k[5mC]) [Compound 1197278]”: the “YAP1 (% UT)” value is 36 % UT. In the case of “1197279 (kT*kT*kA*dG*mA*d[5mC]*dT*dA*dA*dG*dT*dA*dA*kG*kG*kT) [Compound 1197279]”, the “YAP1 (% UT)” value was found to be 54 % UT.

“1197289 (kG*kG*kT*dA*mU*dA*dA*d[5mC]*dT*dG*dG*dG*d[5mC]*kA*kA*kA) [Compound 1197289]”: the “YAP1 (% UT)” value worked out at 48 % UT. On the same count and under the same terms, the same measure for “1197290 (kG*kA*kG*dG*mU*dA*dT*dA*dA*d[5mC]*dT*dG*dG*kG*k[5mC]*kA) [Compound 1197290]”: 37 % UT; for “1197295 (G_{ks}^{m}C_{ks}T_{ks}T_{ds}U_{ys}G_{ds}G_{ds}A_{ds}A_{ds}G_{ds}A_{ds}T_{ds}C_{ds}T_{ks}G_{ks}A_{k}; as printed in the source, key not given here) [Compound 1197295]”: 24 % UT. Same read-out and setting: the same measure for “1197296 (kT*kG*k[5mC]*dT*mU*dT*dG*dG*dA*dA*dG*dA*dT*k[5mC]*kT*kG) [Compound 1197296]”: 36 % UT; for “1197297 (GTGCUTTGGAAGATCT; cEt/MOE gapmer, phosphorothioate, 5-methylcytosine, chemistry not fully specified) [Compound 1197297]”: 25 % UT; for “1197298 (kA*kT*kA*dG*mU*dG*d[5mC]*dT*dT*dT*dG*dG*dA*kA*kG*kA) [Compound 1197298]”: 46 % UT. Same read-out and setting: the figure for “1197299 (kA*kG*kG*dA*mU*dG*d[5mC]*dA*dT*dG*dG*dT*dT*kT*kT*kT; antisense) [Compound 1197299]” is 41 % UT; for “1197300 (kG*kA*kT*dT*mU*dA*dG*dG*dA*dT*dG*d[5mC]*dA*kT*kG*kG; antisense) [Compound 1197300]” it is 42 % UT. As for “1197301 (AGATUTAGGATGCATG; chemistry not fully specified) [Compound 1197301]”, the “YAP1 (% UT)” value was 71 % UT.
